Experimental data as given in US8207172B2 (Bayer Intellectual Property GmbH, priority 2004, dated 2012).
Where a name gives a salt, the structure may show the parent alone.

How the values were obtained:
[1] = tested on: BT474 (human breast carcinoma); test: In vitro tumor cell proliferation assay (Cell Titer-Glo luminescent cell viability), BT474; type: cell-based; conditions: BT-474, 72 h, BT474 cells, 72 hours of drug exposure, ATP luminescence readout, read-out: IC50, anti-proliferative activity (inhibition of cell proliferation)
Method in brief: (§1)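 IC50 values reflect ATP-based luminescence (CellTiter-Glo) after 72 h compound exposure at 37°C. Both lines, A431 and BT474, were plated in RPMI with 10% FBS and received serial dilutions ranging from 100 μM to 64 pM final at 0.1% DMSO.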

[2] = tested on: A431 cells (human epidermoid carcinoma); test: In vitro tumor cell proliferation assay (Cell Titer-Glo luminescent cell viability), A431; type: cell-based; conditions: A-431, 72 h, 72 hours of drug exposure, ATP luminescence readout, read-out: IC50, anti-proliferative activity (inhibition of cell proliferation)
Method in brief: as §1

Structure (SMILES)	IC50 [1] [µM]	IC50 [2] [µM]
Fc1cccc(COc2ccc(Nc3ncnc4sc5c(c34)CCc3c-5cnn3CCN3CCN(Cc4ccncc4)CC3)cc2Cl)c1 [Example 263, N-{3-chloro-4-[(3-fluorobenzyl)oxy]phenyl}-3-{2-[4-(pyridin-4-ylmethyl)piperazin-1-yl]ethyl}-4,5-dihydro-3H-pyrimido[5′,4′:4,5]thieno[2,3-e]indazol-6-amine]	≤ 1	≤ 50
OCCN(CCO)C[C@@H](O)Cn1cc2c(n1)CCc1c-2sc2ncnc(Nc3ccc(OCc4cccc(F)c4)c(Cl)c3)c12 [Example 144, (2R)-1-[bis(2-hydroxyethyl)amino]-3-[6-({3-chloro-4-[(3-fluorobenzyl)oxy]phenyl}amino)-4,5-dihydro-2H-pyrimido[5′,4′:4,5]thieno[2,3-e]indazol-2-yl]propan-2-ol]	≤ 1	≤ 50
COCCNC[C@@H](O)Cn1cc2c(n1)CCc1c-2sc2ncnc(Nc3ccc(OCc4cccc(F)c4)c(Cl)c3)c12 [Example 146, (2R)-1-[6-({3-chloro-4-[(3-fluorobenzyl)oxy]phenyl}amino)-4,5-dihydro-2H-pyrimido[5′,4′:4,5]thieno[2,3-e]indazol-2-yl]-3-[(2-methoxyethyl)amino]propan-2-ol]	≤ 1	≤ 50
CC(C)(C)OC(=O)NCC(=O)OCCn1cc2c(n1)CCc1c-2sc2ncnc(Nc3ccc(OCc4cccc(F)c4)c(Cl)c3)c12 [Example 314, 2-[6-({3-chloro-4-[(3-fluorobenzyl)oxy]phenyl}amino)-4,5-dihydro-2H-pyrimido[5′,4′:4,5]thieno[2,3-e]indazol-2-yl]ethyl N-(tert-butoxycarbonyl)glycinate]	≤ 1	≤ 5
COCCN(C)CCCn1ncc2c1CCc1c-2sc2ncnc(Nc3ccc(OCc4cccc(F)c4)c(Cl)c3)c12 [Example 270, N-{3-chloro-4-[(3-fluorobenzyl)oxy]phenyl}-3-{3-[(2-methoxyethyl)(methyl)amino]propyl}-4,5-dihydro-3H-pyrimido[5′,4′:4,5]thieno[2,3-e]indazol-6-amine]	≤ 1	≤ 50
Cc1cccc(COc2ccc(Nc3ncnc4sc5c(c34)CCc3nn(CCN4CCN(C)CC4)cc3-5)cc2Cl)n1 [Example 117, N-{3-chloro-4-[(6-methylpyridin-2-yl)methoxy]phenyl}-2-[2-(4-methylpiperazin-1-yl)ethyl]-4,5-dihydro-2H-pyrimido[5′,4′:4,5]thieno[2,3-e]indazol 6-amine]	≤ 5	≤ 50
CN1CCN(CCCn2ncc3c2CCc2c-3sc3ncnc(Nc4ccc(OCc5cccc(F)c5)c(Cl)c4)c23)CC1 [Example 269, N-{3-chloro-4-[(3-fluorobenzyl)oxy]phenyl}-3-[3-(4-methylpiperazin-1-yl)propyl]-4,5-dihydro-3H-pyrimido[5′,4′:4,5]thieno[2,3-e]indazol-6-amine]	≤ 1	≤ 5
CC(C)(C)[Si](C)(C)OCCn1cc2c(n1)CCc1c-2sc2ncnc(Nc3ccc(OCc4ccccn4)c(Cl)c3)c12 [Example 98, 2-(2-{[tert-butyl(dimethyl)silyl]oxy}ethyl)-N-[3-chloro-4-(pyridin-2-ylmethoxy)phenyl]-4,5-dihydro-2H-pyrimido[5′,4′:4,5]thieno[2,3-e]indazol-6-amine]	≤ 1	≤ 50
COCCN(CCn1cc2c(n1)CCc1c-2sc2ncnc(Nc3ccc(F)c(Cl)c3)c12)C(C)C [Example 21, N-(3-chloro-4-fluorophenyl)-2-{2-[isopropyl(2-methoxyethyl)amino]ethyl}-4,5-dihydro-2H-pyrimido[5′,4′:4,5]thieno[2,3-e]indazol-6-amine]	≤ 5	≤ 5
CNC(=O)Cn1cc2c(n1)CCc1c-2sc2ncnc(Nc3ccc(OCc4cccc(F)c4)c(Cl)c3)c12 [Example 188, 2-[6-({3-chloro-4-[(3-fluorobenzyl)oxy]phenyl}amino)-4,5-dihydro-2H-pyrimido[5′,4′:4,5]thieno[2,3-e]indazol-2-yl]-N-methylacetamide]	≤ 1	≤ 50
CN(C)CCn1cc2c(n1)CCc1c-2sc2ncnc(Nc3ccc(OCc4cccc(F)c4)c(Cl)c3)c12 [Example 73, N-{3-chloro-4-[(3-fluorobenzyl)oxy]phenyl}-2-[2-(dimethylamino)ethyl]-4,5-dihydro-2H-pyrimido[5′,4′:4,5]thieno[2,3-e]indazol-6-amine]	≤ 1	≤ 5
OC1CCN(CCn2cc3c(n2)CCc2c-3sc3ncnc(Nc4ccc5c(cnn5Cc5cccc(F)c5)c4)c23)C1 (stereo not shown) [Example 286, 1-[2-(6-{[1-(3-fluorobenzyl)-1H-indazol-5-yl]amino}-4,5-dihydro-2H-pyrimido[5′,4′:4,5]thieno[2,3-e]indazol-2-yl)ethyl]pyrrolidin-3-ol]	≤ 1	≤ 5
O=C(O)Cn1ncc2c1CCc1c-2sc2ncnc(Nc3ccc(OCc4cccc(F)c4)c(Cl)c3)c12 [Example 191, [6-({3-chloro-4-[(3-fluorobenzyl)oxy]phenyl}amino)-4,5-dihydro-3H-pyrimido[5′,4′:4,5]thieno[2,3-e]indazol-3-yl]acetic acid]	≤ 50	≤ 50
Cc1cccc(COc2ccc(Nc3ncnc4sc5c(c34)CCc3c-5cnn3CCN3CCN(C)CC3)cc2Cl)c1 [Example 320, N-{3-chloro-4-[(3-methylbenzyl)oxy]phenyl}-3-(2-(4-methylpiperazin-1-yl)ethyl]-4,5-dihydro-3H-pyrimido[5′,4′:4,5]thieno[2,3-e]indazol-6-amine trifluoroacetate]	≤ 5	≤ 5
CCNCCn1cc2c(n1)CCc1c-2sc2ncnc(Nc3ccc(OCc4ccccn4)c(Cl)c3)c12 [Example 108, N-[3-chloro-4-(pyridin-2-ylmethoxy)phenyl]-2-[2-(ethylamino)ethyl]-4,5-dihydro-2H-pyrimido[5′,4′:4,5]thieno[2,3-e]indazol-6-amine]	≤ 1	≤ 50
CCN1CCN(C(=O)Cn2ncc3c2CCc2c-3sc3ncnc(Nc4ccc(OCc5cccc(F)c5)c(Cl)c4)c23)CC1 [Example 202, N-{3-chloro-4-[(3-fluorobenzyl)oxy]phenyl}-3-[2-(4-ethylpiperazin-1-yl)-2-oxoethyl]-4,5-dihydro-3H-pyrimido[5′,4′:4,5]thieno[2,3-e]indazol-6-amine]	≤ 1	≤ 5
Cc1cccc(COc2ccc(Nc3ncnc4sc5c(c34)CCc3n[nH]cc3-5)cc2Cl)n1 [Example 120, N-{3-chloro-4-[(6-methylpyridin-2-yl)methoxy]phenyl}-4,5-dihydro-2H-pyrimido[5′,4′:4,5]thieno[2,3-e]indazol-6-amine]	≤ 5	≤ 5
COCCNCCn1ncc2c1CCc1c-2sc2ncnc(Nc3ccc4c(cnn4Cc4cccc(F)c4)c3)c12 [Example 297, N-[1-(3-fluorobenzyl)-1H-indazol-5-yl]-3-{2-[(2-methoxyethyl)amino]ethyl}-4,5-dihydro-3H-pyrimido[5′,4′:4,5]thieno[2,3-e]indazol-6-amine]	≤ 1	≤ 5
CN1CCN(CCn2ncc3c2CCc2c-3sc3ncnc(Nc4ccc(OCc5ccccn5)c(Cl)c4)c23)CC1 [Example 112, N-[3-chloro-4-(pyridin-2-ylmethoxy)phenyl]-3-[2-(4-methylpiperazin-1-yl)ethyl]-4,5-dihydro-3H-pyrimido[5′,4′:4,5]thieno[2,3-e]indazol-6-amine]	≤ 1	≤ 5
Fc1cccc(COc2ccc(Nc3ncnc4sc5c(c34)CCc3c-5cnn3CCCN3CCCCC3)cc2Cl)c1 [Example 273]	≤ 1	≤ 5
CCN(CC)C[C@@H](O)Cn1ncc2c1CCc1c-2sc2ncnc(Nc3ccc(OCc4cccc(F)c4)c(Cl)c3)c12 [Example 168, (2R)-1-[6-({3-chloro-4-[(3-fluorobenzyl)oxy]phenyl}amino)-4,5-dihydro-3H-pyrimido[5′,4′:4,5]thieno[2,3-e]indazol-3-yl]-3-(diethylamino)propan-2-ol trifluoroacetate (salt)]	≤ 1	≤ 50
c1ccc(Cn2ncc3cc(Nc4ncnc5sc6c(c45)CCc4n[nH]cc4-6)ccc32)cc1 [Example 309, N-(1-benzyl-1H-indazol-5-yl)-4,5-dihydro-2H-pyrimido[5′,4′:4,5]thieno[2,3-e]indazol-6-amine]	≤ 1	≤ 5
C=CCn1ncc2c1CCc1c-2sc2ncnc(Nc3ccc(OCc4cccc(F)c4)c(Cl)c3)c12 [Example 129, 3-allyl-N-{3-chloro-4-[(3-fluorobenzyl)oxy]phenyl}-4,5-dihydro-3H-pyrimido[5′,4′:4,5]thieno[2,3-e]indazol-6-amine]	≤ 1	≤ 50
CNCCn1cc2c(n1)CCc1c-2sc2ncnc(Nc3ccc(OCc4ccccn4)c(Cl)c3)c12 [Example 107, N-[3-chloro-4-(pyridin-2-ylmethoxy)phenyl]-2-[2-(methylamino)ethyl]-4,5-dihydro-2H-pyrimido[5′,4′:4,5]thieno[2,3-e]indazol-6-amine]	≤ 1	≤ 5
CN(C)C1CCN(C(=O)Cn2ncc3c2CCc2c-3sc3ncnc(Nc4ccc(OCc5cccc(F)c5)c(Cl)c4)c23)C1 (stereo not shown) [Example 215, N-{3-chloro-4-[(3-fluorobenzyl)oxy]phenyl}-3-{2-[3-(dimethylamino)pyrrolidin-1-yl]-2-oxoethyl}-4,5-dihydro-3H-pyrimido[5′,4′:4,5]thieno[2,3-e]indazol-6-amine]	≤ 1	≤ 5
CCN1CCN(CCn2cc3c(n2)CCc2c-3sc3ncnc(Nc4ccc5c(cnn5Cc5ccccc5)c4)c23)CC1 [Example 305, N-(1-benzyl-1H-indazol-5-yl)-2-[2 (4-ethylpiperazin-1-yl)ethyl]-4,5-dihydro-2H-pyrimido[5′,4′:4,5]thieno[2,3-e]indazol-6-amine]	≤ 1	≤ 5
